The text below walks through data of patent US4522839A, “3-Substituted 2,4,6-trihalogenated benzamides as sweetening agents” (Schering Aktiengesellschaft, priority 1980, dated 1985).

Usually LD50 stands for the dose expected to kill half of the subjects tested. Lower therefore signals greater toxicity.

Where two headings read alike, the source gives them in different places. Residues, ends and D or L forms follow the SMILES beside them.

Data set [1] is described as follows: Identification threshold values (cts) of sweeteners (triangle test) and comparison with sucrose. Also noted: species or system persons. To be noted: for Identification Threshold Values (cts): tap water, pH 6-7 if necessary with NaOH, 5 persons, triangle test, 1 ml samples; for f suc, mol (cts): compound, sweetening power relative to sucrose, molar. The procedure: These sensory investigations were conducted by 5 persons; all samples were encoded by a person not participating in the test. […] Consecutive samples of 1 ml were consumed. The approximate concentration values determined in a preliminary test were inserted, in the main experiment, in the middle of a dilution series. All solutions of a compound were encoded with two water samples (triangle test). The testers must indicate which of the three samples of decreasing concentration are considered to be sweet. The identification threshold value is set forth to be the lowest concentration range (cts) at which the testers still render a correct judgment.

Data set [2] is described as follows: General taste evaluation of aqueous solutions in concentration stages 1-8 (blind taste test). Also noted: species or system healthy volunteers. To be noted: average results of 3 taste tests. As to the method: The following concentrations correspond to the 8 concentration stages tested:
(§1) The taste tests were conducted by three healthy volunteers; the solutions were coded by letter-number combinations and randomized so that the tester could not know which compound he or she tasted. Also the reference solution (5% sucrose) remained part of the randomizing plan initially, for the purpose of general taste characteristics of the compounds.

Another data set concerns mice. To be noted: for Number of Dead Animals/Number of Animals Utilized: mice, intraperitoneal.
Another data set is described as follows: in vivo. To be noted: mouse, ip.
The nature of data set [3]: Degree of sweetening compared with 5% sucrose solution (taste test). Also noted: species or system healthy volunteers. To be noted: times the sweetening power of sucrose (sucrose = 1), average of 3 taste tests. The procedure: as §1
For data set [4] the following is noted: literature (Hager's Manual), b158: also determined by all three testers in a blind taste test, cited from earlier work.

With `NC(=O)c1c(I)cc(I)c(CCC(=O)O)c1I` [E, 3-(3-carbamoyl-2,4,6-triiodophenyl)propionic acid], the “Identification Threshold Values (cts)” value in data set [1] lay within 1.0 to 2.0 µmol/L.
Turning to `CCOc1ccc(NC(N)=O)cc1` [Dulcin], in data set [1], the “f suc, mol (cts)” value is listed as 489 and the “Identification Threshold Values (cts)” value lay within 15 to 30 µmol/L.
For the compound `NC(=O)c1c(Br)cc(Br)c(CCC(=O)O)c1Br` [A, 3-(3-carbamoyl-2,4,6-tribromophenyl)propionic acid], the “General Taste Evaluation, concentration stage 7” value in data set [2] (0.781 mg/100 ml (1/6400 of 5% sucrose)) is given as “Sweet”. The “General Taste Evaluation, concentration stage 6” value in data set [2] (1.563 mg/100 ml (1/3200 of 5% sucrose)) is recorded as “Sweet”. For the same compound, the General compatibility entry in the data set with mice (intraperitoneal injection in mice) is on record as “approximately the same good compatibility as sodium saccharin”. For the same compound, the “Number of Dead Animals/Number of Animals Utilized” value in the data set with mice (3.0 g/kg BW) was 2/10; with mice (6.0 g/kg BW) it was 6/10; in the data set with mice (9.0 g/kg BW), 10/10. Moreover, in the data set “in vivo”, the 50% lethal dose (LD50) is around 6000 mg/kg. In data set [3], the “Degree of Sweetening” value is 6000-7000. In addition, in data set [1], the “Identification Threshold Values (cts)” value lay within 0.6 to 1.4 µmol/L.
With `NC(=O)c1c(Cl)cc(Cl)c(CCC(=O)O)c1Cl` [G, 3-(3-carbamoyl-2,4,6-trichlorophenyl)propionic acid], the “Identification Threshold Values (cts)” value in data set [1] fell in the range of 2.5 to 4.0 µmol/L.
On the same count and under the same terms, next, `NC(=O)c1c(I)cc(I)c(OCC(=O)O)c1I` [F, 3-carbamoyl-2,4,6-triiodophenoxyacetic acid]: 15 to 25 µmol/L.
For the compound `O=S(=O)(O)NC1CCCCC1` [Cyclamate], the “Degree of sweetening known from the literature” value (“Degree of sweetening known” for short) in data set [4] is on record as 30-70. Further, the “Degree of sweetening known” value in data set [4] (listed as Sodium cyclamate) is reported as 70. Besides, the “Degree of Sweetening” value in data set [3] is below 100. In addition, in data set [1], the “f suc, mol (cts)” value came out at 5.5 and the “Identification Threshold Values (cts)” value lay in the range of 1000 to 3000 µmol/L.
For `OC[C@H]1O[C@@](CO)(O[C@H]2O[C@H](CO)[C@@H](O)[C@H](O)[C@H]2O)[C@@H](O)[C@@H]1O` [Sucrose], the “Degree of Sweetening” value in data set [3] is recorded as 1. Further, in data set [1], the “f suc, mol (cts)” value was found to be 1 and the “Identification Threshold Values (cts)” value fell in the range of 10000 to 12000 µmol/L.
Take `COC(=O)[C@H](Cc1ccccc1)NC(=O)[C@@H](N)CC(=O)O` [Aspartame] (H-Asp-Phe-OMe): in data set [1], the “f suc, mol (cts)” value is 275 and the “Identification Threshold Values (cts)” value lay within 20 to 60 µmol/L.
Turning to `O=C1NS(=O)(=O)c2ccccc21.[Na]` [Sodium Saccharin], in data set [2] (25.0 mg/100 ml (1/200 of 5% sucrose)), the “General Taste Evaluation, concentration stage 2” value is recorded as “Sweet”. In addition, the “General Taste Evaluation, concentration stage 1” value in data set [2] (50.0 mg/100 ml (1/100 of 5% sucrose)) is “Sweet”. In data set [4], the “Degree of sweetening known” value was 400. In addition, the “Number of Dead Animals/Number of Animals Utilized” value in the data set with mice (3.0 g/kg BW) was 0/10. In addition, the “Number of Dead Animals/Number of Animals Utilized” value in the data set on mice (6.0 g/kg BW) was 5/10. The “Degree of Sweetening” value in data set [3] amounted to 400. In data set [1], the “f suc, mol (cts)” value is 489 and the “Identification Threshold Values (cts)” value lay in the range of 15 to 30 µmol/L.
